Assay [1] deals with T1, human recombinant ATX (Homo sapiens (Human), UniProt Q13822). As to the kind of experiment: ATX inhibition, hydrolysis of FRET substrate FS-3. The class given is biochemical. The settings on record: for IC50: 1 μM FS-3, 4 nM human recombinant ATX, 1 hour time point, read-out: IC50 (nM ± SD) vs FS-3. The method, then: (§1) ATX Generation: Human recombinant ATX was expressed as published previously, using Sf9 Spodoptera frugiperda ovary cells (Invitrogen, Carlsbad, Calif.).^13 Suspension cells were grown to a 1 liter quantity at a concentration of 1×10^6 cells/ml in Sf-900 III serum-free medium (Invitrogen) supplemented with 50 U/ml penicillin and 50 μg/ml streptomycin at 27° C. with agitation. Cells were then infected with high-titer baculovirus generated via Bac-to-Bac Baculovirus Expression System (Invitrogen) using the pCMV5 mammalian expression vector containing the C-terminal FLAG-tagged human ATX sequence (a generous gift from Dr. Junken Aoko, ohoku University, Aoba-ku, Sendai, Japan) subcloned into the pFastBacl transfer vector. […] Resultant ATX was then concentrated via centrifugation in Amicon Ultra 30,000 molecular weight cut off filter units (Millipore, Billerica, Mass.) and subsequent buffer exchange into storage buffer comprised of 50 mM Tris, pH 7.4 with 20% (v/v) ethylene glycol. Protein was held at −80° C. for long-term storage.
(§2) ATX Inhibition: ATX activity was assessed via hydrolysis of the synthetic, lipid-like FRET-based substrate FS-3 (Echelon Biosciences, Salt Lake City, Utah) or via hydrolysis of the nucleotide substrate p-nitrophenyl thymidine 5′-monophosphate (pNP-TMP) as described previously.^2 Reaction wells were loaded in 60 μl volumes in triplicate wells of half-area, black-wall 96-well plates in assay buffer consisting of 50 mM Tris, 140 mM NaCl, 5 mM KCl, 1 mM CaCl2, 1 mM MgCl2, […] BSA, pH 8.0. […] Fluorescence was read every 2 minutes for 1 hour at excitation/emission wavelengths of 485/528 nm for FS-3 hydrolysis or 405 nm absorbance for pNP-TMP hydrolysis using a FlexStation 3 microplate reader (Molecular Devices, Sunnyvale, Calif.). Data (relative fluorescence or absorbance) were then recorded as a mean value of the triplicates for each sample versus time. […] In the case of mechanism determination, the linear fluorescence data from time 10 minutes to 30 minutes were then transformed using a carboxyfluorescein standard curve to determine product concentration and plotted separately. Linear trend lines were inserted using Microsoft Excel, the slope of which represent the rates of reaction for each substrate concentration. This reaction rate data for each inhibitor concentration were then plotted against substrate (FS-3) concentration and simultaneously fitted via non-linear regression in the Michaelis-Menten equations for competitive, non-competitive, uncompetitive, and mixed-mode inhibition using GraphPad Prism version 5.0a. Mechanism of inhibition was determined by which curve fit had the best global fit (R^2 value).

Assay [2] addresses T1, human recombinant ATX. Nature of the assay: ATX inhibition, hydrolysis of nucleotide substrate pNP-TMP. The assay is classed as biochemical. The settings on record: 1 mM pNP-TMP, 4 nM ATX, compound 0 to 1 μM. The method, then:
as §1, §2

The next assay addresses LPA1 receptor (Homo sapiens (Human), UniProt Q92633). Nature of the assay: LPA-mediated Ca2+ mobilization, LPA1 RH7777 cells. The settings on record: for IC50: IC50 of compound in presence of EC50 concentration of LPA 18:1, read-out: EC50 or IC50 (μM), LPA1 RH7777; for Emax (% LPA), LPA1 RH7777: normalized to LPA 18:1 Emax. The assay is classed as cell-based. The method, then: Cell Culture: LPA1 and LPA3 RH7777 rat hepatoma cells were generated in-house as described previously^34 and maintained in DMEM supplemented with 10% FBS and 2 mM L-glutamine with 250 μg/ml G418. LPA2 MEF mouse embryonic fibroblast cells were also derived from LPA1 and LPA2 double knockout mouse embryos as described previously^35 and maintained in DMEM supplemented with 10% FBS, 2 mM L-glutamine, 100 U/ml penicillin and 100 μg/ml streptomycin. LPA4 CHO chinese hamster ovary cells were a generous gift from Dr. Takao Shimizu (Tokyo University, Tokyo, Japan) and were maintained in Ham's F12 medium supplemented with 10% FBS, 2 mM L-glutamine and 350 μg/ml G418. LPA5 B103 rate neuroblastoma cells were derived in house via lentiviral transduction of FLAG-tagged LPA5 and puromycin selection as published^36 and maintained in DMEM supplemented with 10% FBS and 0.4 μg/ml puromycin. All cells were maintained at 37° C. with 5% CO2 in a humidified atmosphere.
Calcium Mobilization: As published previously, LPAR activation leads to transient calcium mobilization. […] All cells were plated in triplicate in 96-well, black-wall plates at a density of 5×10^4 cells per well and allowed to adhere overnight. LPA1 and LPA3 RH7777 cells were plated in poly-L-lysine coated plates. LPA5 B103 cells were plated in Matrigel-coated plates. After adherence, cells were serum-deprived in Krebs buffer consisting of 10 mM HEPES, pH 7.4 with 120 mM NaCl; 5 mM KCl; 1.8 mM CaCl2; 0.62 mM MgSO4; 6 mM D-glucose. LPA1 RH7777, LPA3 RH7777 and LPA5 B103 cells were serum-deprived for 4 hours, while LPA2 MEF cells were serum-deprived for 1 hour, and LPA4 CHO cells were not serum-deprived. Fura 2-AM was then loaded for 30 minutes at a concentration of 4.5 μg/ml in Krebs buffer with 0.45% (v/v) Pluronic F-127 (and additionally 0.1% BSA and 2.5 mM Probenicid for LPA4 CHO cells), after which cells were switched to fresh Krebs buffer. […] Fluorescence corresponding to calcium mobilization was immediately monitored upon addition every 3.42 seconds over a span of 70 seconds total at excitation/emission wavelengths of 340/510 and 380/510 nm. […] GraphPad Prism version 5.0a was then used to plot the data and fit non-linear regression curves in a variable slope model in order to determine the pharmacodynamics (EC50 or IC50) of the compounds in Ca^2+ mobilization.

The subject of assay [3] is A2058 human melanoma cells. As to the kind of experiment: In vitro invasion assay (boyden chamber, matrigel). The class given is cell-based. The settings on record: recombinant ATX plus 1 μM 18:1 LPC, 20 h, read-out: IC50 (nM) in cell invasion assay. The procedure: The boyden chamber assay was used to assess the effect of three of the benzene sulfonamide analogues on cell invasion of A2058 human melanoma cells in vitro. The A2058 cells invade the matrigel layer in an LPA-dependent manner. Therefore, exogenous LPC and recombinant ATX was used as a source of LPA. Firstly, the compounds were screened at 10 μM concentration alongside BMP 22, a potent ATX inhibitor^31. […] Subsequently, dose response curves for compounds 3a, 3b and 14 were generated (FIG. 13B).
In vitro invasion assay—A2058 human melanoma cell line (gift from Dr. Timothy Clair, NCI, National Institutes of Health) was cultured in Dulbecco's modified Eagle's medium (DMEM) supplemented with 10% (V/V) FBS, 100 U/mL penicillin, 100 μg/mL streptomycin and 2 mM L-glutamine (Life Technologies). Cell invasion was performed using the 24-well BD Biocoat™ tumor invasion system (BD Biosciences, 8 μm-pore size). Briefly, the matrigel coating was rehydrated with PBS at 37° C. for 2 h. After removal of PBS, 5×10^4 A2058 cells in serum-free DMEM supplemented with 0.1% BSA were plated to each upper chamber. […] The fluorescent invaded cells were measured using the FLEXstation II plate reader (Molecular Devices) at excitation and emission wavelengths of 485 and 530 nm, respectively.

SMILES strings stand for the structures. Where “and” joins values, the source holds several entries; their conditions need not be identical. Equal entries are not always repeated.

Sequence of LPA1 receptor (Q92633 whole entry): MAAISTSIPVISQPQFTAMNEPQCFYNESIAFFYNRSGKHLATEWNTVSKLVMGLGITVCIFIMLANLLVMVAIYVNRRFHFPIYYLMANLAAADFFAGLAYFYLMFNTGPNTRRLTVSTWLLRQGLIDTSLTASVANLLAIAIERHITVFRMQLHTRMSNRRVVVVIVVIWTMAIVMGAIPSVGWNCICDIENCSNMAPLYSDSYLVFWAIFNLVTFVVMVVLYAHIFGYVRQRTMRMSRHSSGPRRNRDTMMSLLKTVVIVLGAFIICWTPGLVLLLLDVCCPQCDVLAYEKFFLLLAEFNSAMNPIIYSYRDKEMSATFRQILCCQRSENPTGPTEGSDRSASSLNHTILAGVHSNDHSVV

As for `O=C(Nc1cc(F)c(Cl)c(F)c1)c1cc(S(=O)(=O)N2CCOCC2)c(Cl)cc1Cl` [Compound 3f, 2,4-dichloro-N-(4-chloro-3,5-difluorophenyl)-5-(morpholinosulfonyl)benzamide], on human recombinant ATX [1], the IC50 was 83 nM and 83.7 nM. Further, the “pNP-TMP Inhibition” value at human recombinant ATX [2] is “None”. Further, at LPA1 receptor, the IC50 worked out at 3.96 µM and the “Emax (% LPA), LPA1 RH7777” value worked out at 38.58 % LPA.

For the compound `O=C(Nc1cc(F)c(F)c(F)c1)c1cc(S(=O)(=O)N2CCOCC2)c(Cl)cc1Cl` [Compound 3b, 2,4-dichloro-5-(morpholinosulfonyl)-N-(3,4,5-trifluorophenyl)benzamide], the Mechanism entry at human recombinant ATX [1] (mechanism of inhibition, FS-3 0 to 10 μM, inhibitor 0, 0.5×IC50 or 2×IC50) is given as “Competitive”. The “pNP-TMP Inhibition” value on human recombinant ATX [2] was “sparing effects and None”. Besides, the values for the IC50 (at LPA1 receptor; in assay [3]) were 9.1 µM and 528 ± 13.9 nM, respectively. In addition, the “Emax (% LPA), LPA1 RH7777” value on LPA1 receptor is listed as 37.99 % LPA.

On to `O=C(Nc1ccc(F)c(F)c1)c1cc(S(=O)(=O)N2CCOCC2)c(Cl)cc1Cl` [Compound 3a, 2,4-dichloro-N-(3,4-difluorophenyl)-5-(morpholinosulfonyl)benzamide], for which, on human recombinant ATX [1], the “fold IC50 improvement relative to screening hit 918013” value is reported as “four-fold” and the IC50 stood at 31.5 ± 2.11 nM. The “pNP-TMP Inhibition” value at human recombinant ATX [2] is listed as “None”. The IC50 in assay [3] came to 1478 ± 12.3 nM.

For `O=C(Nc1cc(Cl)c(F)c(Cl)c1)c1cc(S(=O)(=O)N2CCOCC2)c(Cl)cc1Cl` [Compound 3g, 2,4-dichloro-N-(3,5-dichloro-4-fluorophenyl)-5-(morpholinosulfonyl)benzamide], at human recombinant ATX [1], the IC50 was found to be 40.09 ± 0.33 nM. Further, on human recombinant ATX [2], the “pNP-TMP Inhibition” value is on record as “None”. On LPA1 receptor, the IC50 is 11.9 µM and the “Emax (% LPA), LPA1 RH7777” value is on record as 36.08 % LPA.

On to `O=S(=O)(c1cc(C(=S)Nc2cc(F)c(F)c(F)c2)c(Cl)cc1Cl)N1CCOCC1` [Compound 14, 2,4-dichloro-5-(morpholinosulfonyl)-N-(3,4,5-trifluorophenyl)benzothioamide], for which, on human recombinant ATX [1], the “fold IC50 improvement relative to screening hit 918013” value is on record as “three fold” and the IC50 is 35.3 ± 2.66 nM. The “pNP-TMP Inhibition” value at human recombinant ATX [2] is “None”.

For the origin of these results see patent US11124490B2, “Autotaxin inhibitors” (UNIVERSITY OF TENNESSEE RESEARCH FOUNDATION, priority 2016, dated 2021).
